In the NIST ThermoML archive (doi:10.1021/je100940w):
± gives the expanded uncertainty stated by the source.

Assays:
[1] = 298.15 K; 101.33 kPa; Liquid; Vibrating tube method
[2] = refractive index (Na D-line) (dimensionless); details: 298.15 K; 101.33 kPa; Liquid; Standard Abbe refractometry

| Structure (SMILES) | mass density [1] [kg/m3] | refractive index [2] |
| --- | --- | --- |
| CC(=O)CC(C)C [4-methylpentan-2-one] | 795.94 ± 0.14 | 1.3936 ± 0.0005 |
| CCC(C)O (stereo not given) [butan-2-ol] | 802.35 ± 0.24 | 1.3949 ± 0.0005 |
| O [water] | – | 1.3332 ± 0.0005 |
